Reference: article PMC9463526 (Journal of Pharmaceutical Analysis, 2022)

Experiments:
[1] = Analyte stability in human plasma; format: physicochemical; settings: for Freeze-thaw stability, Accuracy / Freeze-thaw stability, Mean concentration / Freeze-thaw stability, Difference: 3 cycles; for Freeze-thaw stability, Difference / Benchtop stability, Difference / Processed sample stability, Difference / Autosampler stability (5 °C), Difference / Long-term stability (−20 °C), Difference: vs freshly processed QC; for Benchtop stability, Accuracy / Benchtop stability, Mean concentration / Benchtop stability, Difference: 19 h; for Processed sample stability, Accuracy / Processed sample stability, Mean concentration / Processed sample stability, Difference: 23 h; for Autosampler stability (5 °C), Accuracy / Autosampler stability (5 °C), Mean concentration / Autosampler stability (5 °C), Difference: 112 h; for Long-term stability (−20 °C), Accuracy / Long-term stability (−20 °C), Mean concentration / Long-term stability (−20 °C), Difference: 27 days
Experimental: The stability of the analytes was studied under various storage and processing conditions. […] Short- and long-term stability studies of all analytes were conducted in human blank plasma and brain homogenate under several storage conditions. Analyte stability in biological matrices was analyzed using freshly prepared calibration standards and QC samples. The percentage difference between the stability and freshly processed QC was also assessed. Re-injection reproducibility was evaluated within the sample stability period in the autosampler. Analytes were considered stable if the accuracy at each level was ±15.0% of the nominal value. Additionally, the difference from corresponding comparison QC samples must be within ±15.0%.

[2] = Pilot pharmacokinetic studies in mice (blood-brain barrier); format: in vivo
[3] = parameters: method as in investigational brochures; settings: ref investigational brochures; cited from earlier work
[4] = Tumor-to-plasma partition coefficients (Kp, Kp,uu) in GBM patients; format: in vivo, human; settings: for Unbound tumor-to-plasma partition coefficient (Kp,uu), fold lower than abemaciclib: both GBM regions, five patients
Experimental: Blank brain and clinical brain tumor tissue homogenates were prepared at 1:9 (m/V) ratio with PBS. The samples were homogenized at a speed of 6.00 m/s for 40 s for three cycles using a Bead Ruptor Elite homogenizer (Omni International, Kennesaw, GA, USA). Plasma was used as a surrogate matrix when preparing calibration curves for brain and brain tumor homogenates and CSF as well as for the PBS fraction after sample dialysis. To minimize matrix differences, all plasma samples were spiked with PBS, while all non-plasma samples were spiked with plasma. Extraction of the analyte and IS was facilitated by protein precipitation using methanol-containing IS precipitation solution. Samples (70 μL) spiked with PBS or plasma were precipitated using 400 μL of IS precipitation solution. After centrifugation at 12,000 r/min for 10 min at 4 °C, the supernatant was transferred for LC-MS/MS analysis.
Unbound drug levels in the actual plasma and brain tumor tissue were measured using dialysis for 16 h to reach equilibrium. The mean of fraction unbound values determined in five patient samples was calculated.
The validated bioanalytical method was employed to investigate analytes pharmacokinetics in the plasma, brain tumor, and CSF in GBM patients (ClinicalTrials.gov identifier: NCT04391595). The protocol was reviewed and approved by the Institutional Review Board of the Barrow Neurological Institute, St. Joseph's Hospital and Medical Center (Phoenix, AZ, USA). All patients enrolled in the trial provided written informed consent. […] Blood, CSF, and GBM tissue (including gadolinium-contrast enhancing and non-enhancing regions) samples were obtained intra-operatively from each patient on the […] on the planned operation day. Blood was centrifuged at 4 °C and 3,000 r/min for 10 min; plasma was subsequently collected. Brain tumors were resected 7–9 h after the last dose was administered. Once resected, the tissue samples were rinsed with PBS, paper dried, and freshly frozen in liquid nitrogen. […]

Cn1nccc1Nc1nccc(-c2cc3c(s2)C(C)(C)N(CCN2CCOCC2)C3=O)n1 [LY3214996]
Freeze-thaw stability, Accuracy ([1]; HQC 400.0 nM): 100.6% | Freeze-thaw stability, Mean concentration ([1]; HQC 400.0 nM): 402.5 nM | Freeze-thaw stability, Difference ([1]; HQC 400.0 nM): 3.2% | Freeze-thaw stability, Accuracy ([1]; LQC 0.6 nM): 101.0% | Freeze-thaw stability, Mean concentration ([1]; LQC 0.6 nM): 0.606 nM | Freeze-thaw stability, Difference ([1]; LQC 0.6 nM): 5.3% | Benchtop stability, Accuracy ([1]; HQC 400.0 nM): 102.3% | Benchtop stability, Mean concentration ([1]; HQC 400.0 nM): 409.3 nM | Benchtop stability, Difference ([1]; HQC 400.0 nM): 2.8% | Benchtop stability, Accuracy ([1]; LQC 0.6 nM): 97.7% | Benchtop stability, Mean concentration ([1]; LQC 0.6 nM): 0.586 nM | Benchtop stability, Difference ([1]; LQC 0.6 nM): 3.2% | Processed sample stability, Accuracy ([1]; HQC 400.0 nM): 97.7% | Processed sample stability, Mean concentration ([1]; HQC 400.0 nM): 390.7 nM | Processed sample stability, Difference ([1]; HQC 400.0 nM): 2.2% | Processed sample stability, Accuracy ([1]; LQC 0.6 nM): 91.1% | Processed sample stability, Mean concentration ([1]; LQC 0.6 nM): 0.547 nM | Processed sample stability, Difference ([1]; LQC 0.6 nM): −3.4% | Autosampler stability (5 °C), Accuracy ([1]; HQC 400.0 nM): 95.4% | Autosampler stability (5 °C), Mean concentration ([1]; HQC 400.0 nM): 381.8 nM | Autosampler stability (5 °C), Difference ([1]; HQC 400.0 nM): 1.5% | Autosampler stability (5 °C), Accuracy ([1]; LQC 0.6 nM): 92.5% | Autosampler stability (5 °C), Mean concentration ([1]; LQC 0.6 nM): 0.555 nM | Autosampler stability (5 °C), Difference ([1]; LQC 0.6 nM): 3.1% | Long-term stability (−20 °C), Accuracy ([1]; HQC 400.0 nM): 104.5% | Long-term stability (−20 °C), Mean concentration ([1]; HQC 400.0 nM): 418.1 nM | Long-term stability (−20 °C), Difference ([1]; HQC 400.0 nM): 3.4% | Long-term stability (−20 °C), Accuracy ([1]; LQC 0.6 nM): 101.5% | Long-term stability (−20 °C), Mean concentration ([1]; LQC 0.6 nM): 0.609 nM | Long-term stability (−20 °C), Difference ([1]; LQC 0.6 nM): −2.2% | Crossing of the blood-brain barrier [2]: may cross the blood-brain barrier | pKa (strongest basic) [3]: 6.21

Cc1nc2c(F)cc(-c3nc(Nc4ccc(CN5CCNCC5)cn4)ncc3F)cc2n1C(C)C [M2]
Unbound tumor-to-plasma partition coefficient (Kp,uu), fold lower than abemaciclib [4]: at least 3 fold | Total tumor-to-plasma partition coefficient (Kp), fold higher than M20 ([4]; gadolinium-contrast enhancing and non-enhancing GBM regions): > 2 fold | Freeze-thaw stability, Accuracy ([1]; HQC 400.0 nM): 106% | Freeze-thaw stability, Mean concentration ([1]; HQC 400.0 nM): 424.2 nM | Freeze-thaw stability, Difference ([1]; HQC 400.0 nM): 5.8% | Freeze-thaw stability, Accuracy ([1]; LQC 0.6 nM): 105.3% | Freeze-thaw stability, Mean concentration ([1]; LQC 0.6 nM): 0.632 nM | Freeze-thaw stability, Difference ([1]; LQC 0.6 nM): 5.8% | Benchtop stability, Accuracy ([1]; HQC 400.0 nM): 103.8% | Benchtop stability, Mean concentration ([1]; HQC 400.0 nM): 415.0 nM | Benchtop stability, Difference ([1]; HQC 400.0 nM): 1.1% | Benchtop stability, Accuracy ([1]; LQC 0.6 nM): 92.2% | Benchtop stability, Mean concentration ([1]; LQC 0.6 nM): 0.553 nM | Benchtop stability, Difference ([1]; LQC 0.6 nM): −1.7% | Processed sample stability, Accuracy ([1]; HQC 400.0 nM): 100.6% | Processed sample stability, Mean concentration ([1]; HQC 400.0 nM): 402.2 nM | Processed sample stability, Difference ([1]; HQC 400.0 nM): 0.7% | Processed sample stability, Accuracy ([1]; LQC 0.6 nM): 95.5% | Processed sample stability, Mean concentration ([1]; LQC 0.6 nM): 0.573 nM | Processed sample stability, Difference ([1]; LQC 0.6 nM): 3.6% | Autosampler stability (5 °C), Accuracy ([1]; HQC 400.0 nM): 97.7% | Autosampler stability (5 °C), Mean concentration ([1]; HQC 400.0 nM): 390.9 nM | Autosampler stability (5 °C), Difference ([1]; HQC 400.0 nM): −0.2% | Autosampler stability (5 °C), Accuracy ([1]; LQC 0.6 nM): 96.8% | Autosampler stability (5 °C), Mean concentration ([1]; LQC 0.6 nM): 0.581 nM | Autosampler stability (5 °C), Difference ([1]; LQC 0.6 nM): 4.8% | Long-term stability (−20 °C), Accuracy ([1]; HQC 400.0 nM): 109.2% | Long-term stability (−20 °C), Mean concentration ([1]; HQC 400.0 nM): 437.0 nM | Long-term stability (−20 °C), Difference ([1]; HQC 400.0 nM): 5.6% | Long-term stability (−20 °C), Accuracy ([1]; LQC 0.6 nM): 99.9% | Long-term stability (−20 °C), Mean concentration ([1]; LQC 0.6 nM): 0.6 nM | Long-term stability (−20 °C), Difference ([1]; LQC 0.6 nM): −3.1%

CCN1CCN(Cc2ccc(Nc3ncc(F)c(-c4cc(F)c5nc(CO)n(C(C)C)c5c4)n3)nc2)CC1 [M20]
Unbound tumor-to-plasma partition coefficient (Kp,uu), fold lower than abemaciclib [4]: at least 3 fold | Freeze-thaw stability, Accuracy ([1]; HQC 400.0 nM): 99.6% | Freeze-thaw stability, Mean concentration ([1]; HQC 400.0 nM): 398.6 nM | Freeze-thaw stability, Difference ([1]; HQC 400.0 nM): 0.3% | Freeze-thaw stability, Accuracy ([1]; LQC 0.6 nM): 97.2% | Freeze-thaw stability, Mean concentration ([1]; LQC 0.6 nM): 0.583 nM | Freeze-thaw stability, Difference ([1]; LQC 0.6 nM): 2.9% | Benchtop stability, Accuracy ([1]; HQC 400.0 nM): 102.2% | Benchtop stability, Mean concentration ([1]; HQC 400.0 nM): 408.9 nM | Benchtop stability, Difference ([1]; HQC 400.0 nM): 2.8% | Benchtop stability, Accuracy ([1]; LQC 0.6 nM): 99.9% | Benchtop stability, Mean concentration ([1]; LQC 0.6 nM): 0.599 nM | Benchtop stability, Difference ([1]; LQC 0.6 nM): 3.5% | Processed sample stability, Accuracy ([1]; HQC 400.0 nM): 101.4% | Processed sample stability, Mean concentration ([1]; HQC 400.0 nM): 405.7 nM | Processed sample stability, Difference ([1]; HQC 400.0 nM): 2.7% | Processed sample stability, Accuracy ([1]; LQC 0.6 nM): 88.9% | Processed sample stability, Mean concentration ([1]; LQC 0.6 nM): 0.534 nM | Processed sample stability, Difference ([1]; LQC 0.6 nM): −2% | Autosampler stability (5 °C), Accuracy ([1]; HQC 400.0 nM): 95.6% | Autosampler stability (5 °C), Mean concentration ([1]; HQC 400.0 nM): 382.5 nM | Autosampler stability (5 °C), Difference ([1]; HQC 400.0 nM): −2% | Autosampler stability (5 °C), Accuracy ([1]; LQC 0.6 nM): 95.1% | Autosampler stability (5 °C), Mean concentration ([1]; LQC 0.6 nM): 0.57 nM | Autosampler stability (5 °C), Difference ([1]; LQC 0.6 nM): 1.3% | Long-term stability (−20 °C), Accuracy ([1]; HQC 400.0 nM): 104.7% | Long-term stability (−20 °C), Mean concentration ([1]; HQC 400.0 nM): 418.8 nM | Long-term stability (−20 °C), Difference ([1]; HQC 400.0 nM): 2.7% | Long-term stability (−20 °C), Accuracy ([1]; LQC 0.6 nM): 101.7% | Long-term stability (−20 °C), Mean concentration ([1]; LQC 0.6 nM): 0.61 nM | Long-term stability (−20 °C), Difference ([1]; LQC 0.6 nM): −4%
